This experiment has as its target T1, human CXCR3 (Homo sapiens, UniProt P49682).
T1 construct: expressed in transfected cells
T1 sequence (P49682 1-368): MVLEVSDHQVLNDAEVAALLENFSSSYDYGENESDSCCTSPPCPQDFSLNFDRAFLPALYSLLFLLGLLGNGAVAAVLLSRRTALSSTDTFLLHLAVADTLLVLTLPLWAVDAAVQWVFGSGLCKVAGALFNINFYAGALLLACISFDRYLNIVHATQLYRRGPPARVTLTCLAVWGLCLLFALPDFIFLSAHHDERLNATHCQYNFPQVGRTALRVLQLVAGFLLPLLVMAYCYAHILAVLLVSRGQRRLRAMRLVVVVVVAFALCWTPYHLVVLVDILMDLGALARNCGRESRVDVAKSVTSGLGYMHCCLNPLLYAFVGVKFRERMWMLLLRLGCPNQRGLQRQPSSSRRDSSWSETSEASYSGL
Briefly: Inhibition of IP-10-induced transient Ca2+ rise in CXCR3/CHO cells. It is filed as cell-based. Particulars: human IP-10 30 nM. How it is done:
An Inhibitory Experiment Against the Binding of IP-10 and CXCR3 (the Activity of that Ca Ion (Ca^2+) is Raised in Transient and Induced by IP-10)
The CHO cell (CXCR3/CHO cell) which overexpresses human CXCR3 in stable was suspended with Ham's F-12 culture medium and FBS (10%), was rolled up in 96well plate to become 3.0×10^4 cell/well. After the plate was incubated for one day at 37° C., removed the cultural supernatant, added Ham's F-12 culture media (Fura-2AM (5 μM), Probenecid (2.5 mM) and HEPES (20 mM; pH7.4) were included) to 80 μl/well, incubated for one hour at 37° C. in light exclusion state. […] The transient rise of the intracellular Ca^2+ concentration induced by human IP-10 was measured by means of Ca^2+ detector for 96well (made in Hamamatsu Photonics), and the inhibitory rate (%) of the test compound was calculated by the following calculation formula.
Ec: The measured value of the Ca^2+ transient rise induced by IP-10 Ea: The measured value of the Ca^2+ transient rise induced by IP-10 when a test compound was added
As a reminder, the IC50 is the concentration at which inhibition is half-maximal. High values mean weaker potency, low ones greater potency. Molecule `O=C1C(Cc2ccccc2)CCC2(CCN(Cc3ccc(Cl)cc3)CC2)N1CC1CC1` (stereo not shown) [Example 15, 3-benzyl-9-(4-chlorobenzyl)-1-(cyclopropylmethyl)-1,9-diazaspiro[5.5]undecan-2-one] gave an IC50 of 1100 nM.

The molecule `CCCN1C(=O)N(CCc2ccccc2)C=CC12CCN(Cc1ccc(Cl)cc1)CC2` [Example 9, 9-(4-chlorobenzyl)-3-(2-phenylethyl)-1-propyl-1,3,9-triazaspiro[5.5]undec-4-en-2-one] displayed an IC50 of 3400 nM. This IC50 lies about 3.1-fold higher than the previous one.

Molecule `C#CCOc1ccc(CN2CCC3(CCCCC3)CC2)cc1` [Example 5, 3-[4-(prop-2-yn-1-yloxy)benzyl]-3-azaspiro[5.5]undecane] gave an IC50 of 3200 nM.

Molecule `CCCCN1CCC2(CCN(Cc3ccc(Cl)cc3)CC2)N(C2CCCC2)C1=O` [Example 11, 3-butyl-9-(4-chlorobenzyl)-1-cyclopentyl-1,3,9-triazaspiro[5.5]undecan-2-one] registered a concentration for half-maximal inhibition (IC50) of 2100 nM. Against the preceding molecule, the IC50 is about 1.5-fold lower.

For the origin of these results see US20110052612A1, “SPIROPIPERIDINE COMPOUND AND MEDICINAL USE THEREOF” (ONO PHARMACEUTICAL CO., LTD., priority 2005, published 2011).
